# Measurements taken from patent publication US20250163002A1, “FUSED QUINONOXIME IMIDAZOLE, ONIUM DERIVATIVES THEREOF, PREPARATION AND USE THEREOF” (SHANGHAI JIAO TONG UNIVERSITY, priority 2022, published 2025).
# Counter-ions that a name gives are not always drawn.
# Experiments:
# Format in all cases: cell-based
# A549 = experiment: In vitro inhibition test for cancer cell proliferation (MTT), A549; details: unit inferred
# HeLa = experiment: In vitro inhibition test for cancer cell proliferation (MTT), HeLa; details: 24 h or 48 h after addition, unit inferred
# MCF-7 = experiment: In vitro inhibition test for cancer cell proliferation (MTT), MCF-7; details: unit inferred
# L929 = experiment: In vitro cell proliferation inhibition test (MTT), L929; details: unit inferred
"IC50 (A549; Homo sapiens, A549, 24 h or 48 h after addition) [nM]","IC50 (HeLa; Homo sapiens, HeLa) [µM]","IC50 (MCF-7; Homo sapiens, MCF7, 24 h or 48 h after addition) [µM]",SMILES,IC50 (A549; 24 h or 48 h after addition) [nM],IC50 (HeLa) [µM],IC50 (MCF-7; 24 h or 48 h after addition) [µM],IC50 (L929; 24 h or 48 h after addition) [µM],"IC50 (L929; Mus musculus, L929, 24 h or 48 h after addition) [µM]"
–,–,–,"CCCCn1c2c([n+](C)c1-c1cc(OC)c(OC)c(OC)c1)C(=NOCc1ccccc1)c1ccccc1C2=O [Compound 148, (E) and (Z)-4-((benzyloxy)imino)-1-butyl-3-methyl-9-oxo-2-(3,4,5-trimethoxyphenyl)-4,9-dihydro-1H-naphthol[2,3-d]imidazole-3-iodide]",90,23.6,34.6,44.1,–
–,–,–,"Cn1c[n+](C)c2c1C(=O)c1ccccc1C2=NOCc1ccc(C(F)(F)F)cc1 [Compound 135, (E) and (Z)-1,3-dimethyl-9-oxo-4-(((4-(trifluoromethyl)benzyl)oxy)imino)-4,9-dihydro-1H-naphthol[2,3-d]imidazole-3-iodide]",160,45.4,34.9,4.03,–
–,–,–,"C[n+]1cn(Cc2cccs2)c2c1/C(=N/O)c1ccccc1C2=O [Compound 106, (E)-4-(hydroxylimino)-3-methyl-9-oxo-1-(thiophene-2-yl-methyl)-4,9-dihydro-1H-naphthol[2,3-d]imidazole-3-iodide]",11200,9.2,20.2,> 100,–
–,–,–,"CC[n+]1cn(C)c2c1C(=NOC)c1ccccc1C2=O [Compound 126, (E) and (Z)-3-ethyl-4-(methoxylimino)-1-methyl-9-oxo-4,9-dihydro-1H-naphthol[2,3-d]imidazole-3-iodide]",590,39,12.2,85.2,–
–,–,–,"Cc1cc(C)c(-n2c[n+](C)c3c2C(=O)c2ccccc2/C3=N\O)c(C)c1 [Compound 105, (E)-4-(hydroxylimino)-1-sym-trimethyl-3-methyl-9-oxo-4,9-dihydro-1H-naphthol[2,3-d]imidazole-3-iodide]",1110,22.6,6.12,> 100,–
–,–,–,"COc1ccc(CON=C2c3ccccc3C(=O)c3c2[n+](C)cn3C)cc1 [Compound 133, (E) and (Z)-4-(((4-methoxybenzyl)oxy)imino)-1,3-dimethyl-9-oxo-4,9-dihydro-1H-naphthol[2,3-d]imidazole-3-iodide]",80,23.9,17.9,16,–
–,–,–,"Cn1c[n+](C)c2c1C(=O)c1ccccc1C2=NOCc1ccccc1 [Compound 139, (E) and (Z)-4-((benzyloxy)imino)-1,3-dimethyl-9-oxo-4,9-dihydro-1H-naphthol[2,3-d]imidazole-3-p-toluenesulfonamide]",5,6.8,8.6,19.9,–
–,–,–,"C[n+]1cn(Cc2ccc(F)cc2)c2c1/C(=N/O)c1ccccc1C2=O [Compound 108, (E)-1-(4-fluorobenzyl)-4-(hydroxylimino)-3-methyl-9-oxo-4,9-dihydro-1H-naphthol[2,3-d]imidazole-3-iodide]",500,2.38,1.63,> 100,–
–,–,–,"COc1ccc(Cn2c[n+](C)c3c2C(=O)c2ccccc2/C3=N\O)cc1 [Compound 115, (E)-4-(hydroxylimino)-1-(4-methoxybenzyl)-3-methyl-9-oxo-4,9-dihydro-1H-naphthol[2,3-d]imidazole-3-iodide]",130,2.5,1.64,17.6,–
–,–,–,"COCCO/N=C1\c2ccccc2C(=O)c2c1[n+](C)cn2C [Compound 144, (E)-4-((2-methoxyethoxy)imino)-1,3-dimethyl-9-oxo-4,9-dihydro-1H-naphthol[2,3-d]imidazole-3-iodide]",60,23.3,33,46.6,–
–,–,–,"CCCCn1c[n+](C)c2c1C(=O)c1ccccc1C2=NOCc1ccccc1 [Compound 121, (E) and (Z)-4-((benzyloxy)imino)-1-butyl-3-methyl-9-oxo-4,9-dihydro-1H-naphthol[2,3-d]imidazole-3-iodide]",90,28,6.8,61,–
670,1.43,0.84,"CCCCn1c[n+](C)c2c1C(=O)c1ccccc1/C2=N\O [Compound 94, (E)-1-butyl-4-(hydroxylimino)-3-methyl-9-oxo-4,9-dihydro-1H-naphthol[2,3-d]imidazole-3-iodide]",–,–,–,–,39.2
–,–,–,"Cn1c[n+](C)c2c1C(=O)c1ccccc1C2=NOCc1ccc([N+](=O)[O-])cc1 [Compound 141, (E) and (Z)-1,3-dimethyl-4-(((4-nitrobenzyl)oxy)imino)-9-oxo-4,9-dihydro-1H-naphthol[2,3-d]imidazole-3-iodide]",50,23.9,45.6,23.4,–
–,–,–,"CCCCn1c[n+](C)c2c1C(=O)c1ccccc1C2=NOC [Compound 119, (E) and (Z)-1-butyl-4-(methoxylimino)-3-methyl-9-oxo-4,9-dihydro-1H-naphthol[2,3-d]imidazole-3-iodide]",520,33,18.1,4.6,–
–,–,–,"CCCn1c[n+](C)c2c1C(=O)c1ccccc1/C2=N\O [Compound 93, (E)-4-(hydroxylimino)-3-methyl-9-oxo-1-propyl-4,9-dihydro-1H-naphthol[2,3-d]imidazole-3-iodide]",1030,2.18,1.43,32.7,–
–,–,–,"C[n+]1cn(-c2ccc(F)c(Cl)c2)c2c1/C(=N/O)c1ccccc1C2=O [Compound 116, (E)-1-(3-chloro-4-fluorophenyl)-4-(hydroxylimino)-3-methyl-9-oxo-4,9-dihydro-1H-naphthol[2,3-d]imidazole-3-iodide]",2300,> 100,> 100,> 100,–
–,–,–,"CCOC(=O)Cn1c[n+](C)c2c1C(=O)c1ccccc1/C2=N\O [Compound 103, (E)-1-(2-ethoxy-2-ethoxy)-4-(hydroxylimino)-3-methyl-9-oxo-4,9-dihydro-1H-naphthol[2,3-d]imidazole-3-iodide]",600,2.73,1.63,> 100,–
–,–,–,"C[n+]1cn(-c2ccccc2)c2c1/C(=N/O)c1ccccc1C2=O [Compound 104, (E)-4-(hydroxylimino)-3-methyl-9-oxo-1-phenyl-4,9-dihydro-1H-naphthol[2,3-d]imidazole-3-iodide]",12200,12.5,1.43,> 100,–
–,–,–,"Cn1c[n+](C)c2c1C(=O)c1ccccc1C2=NOCc1ccccc1 [Compound 140, (E) and (Z)-4-((benzyloxy)imino)-1,3-dimethyl-9-oxo-4,9-dihydro-1H-naphthol[2,3-d]imidazole-3-dimethyl sulfate]",7,9.8,10.9,34.5,–
–,–,–,"C[n+]1cn(Cc2ccccc2)c2c1/C(=N/O)c1ccccc1C2=O [Compound 102, (E)-1-benzyl-4-(hydroxylimino)-3-methyl-9-oxo-4,9-dihydro-1H-naphthol[2,3-d]imidazole-3-iodide]",630,1.05,0.89,37.4,–
–,–,–,"CCC(C)Cn1c[n+](C)c2c1C(=O)c1ccccc1/C2=N\O (stereo not shown) [Compound 97, (E)-4-(hydroxylimino)-3-methyl-1-(2-methylbutyl)-9-oxo-4,9-dihydro-1H-naphthol[2,3-d]imidazole-3-iodide]",1370,1.97,1.05,74,–
–,–,–,"C[n+]1cn(Cc2ccccc2F)c2c1/C(=N/O)c1ccccc1C2=O [Compound 112, (E)-1-(2-fluorobenzyl)-4-(hydroxylimino)-3-methyl-9-oxo-4,9-dihydro-1H-naphthol[2,3-d]imidazole-3-iodide]",570,7.7,3.7,27.3,–
–,–,–,"C[n+]1cn(Cc2cccc(F)c2)c2c1/C(=N/O)c1ccccc1C2=O [Compound 113, (E)-1-(3-fluorobenzyl)-4-(hydroxylimino)-3-methyl-9-oxo-4,9-dihydro-1H-naphthol[2,3-d]imidazole-3-iodide]",570,7.1,10,73.4,–
–,–,–,"C[n+]1cn(-c2ccc(F)cc2)c2c1/C(=N/O)c1ccccc1C2=O [Compound 111, (E)-1-(4-fluorophenyl)-4-(hydroxylimino)-3-methyl-9-oxo-4,9-dihydro-1H-naphthol[2,3-d]imidazole-3-iodide]",11600,19.7,24.6,> 100,–
–,–,–,"Cn1c[n+](C)c2c1C(=O)c1cccc([N+](=O)[O-])c1/C2=N\O [Compound 118, (E)-4-(hydroxylimino)-1,3-dimethyl-5-nitro-9-oxo-4,9-dihydro-1H-naphthol[2,3-d]imidazole-3-iodide]",540,0.78,0.89,12.9,–
–,–,–,"Cn1c[n+](C)c2c1C(=O)c1ccccc1C2=NOCc1ccc(F)cc1 [Compound 136, (E) and (Z)-4-(((4-fluorobenzyl)oxy)imino)-1,3-dimethyl-9-oxo-4,9-dihydro-1H-naphthol[2,3-d]imidazole-3-iodide]",60,23.9,29.8,4.4,–
–,–,–,"COc1ccc(-n2c[n+](C)c3c2C(=O)c2ccccc2/C3=N\O)cc1 [Compound 114, (E)-4-(hydroxylimino)-1-(4-methoxyphenyl)-3-methyl-9-oxo-4,9-dihydro-1H-naphthol[2,3-d]imidazole-3-iodide]",2420,33.8,33,> 100,–
–,–,–,"C[n+]1cn(C2CC2)c2c1/C(=N/O)c1ccccc1C2=O [Compound 99, (E)-1-cyclopropyl-4-(hydroxylimino)-3-methyl-9-oxo-4,9-dihydro-1H-naphthol[2,3-d]imidazole-3-iodide]",1720,5.74,1.63,19.8,–
